How the values were obtained:
[1] = molecular target: PI3-kinase p110-alpha/p85-alpha (Homo sapiens, UniProt P42336); experiment: Inhibition of recombinant full length N-terminal His-tagged human PI3K p110alpha/p85alpha expressed in baculovirus expression system using PIP2/PS as substrate after 1 hr by ADP-Glo luminescence assay
[2] = molecular target: Phosphatidylinositol 4,5-bisphosphate 3-kinase catalytic subunit beta isoform (Homo sapiens, UniProt P42338); experiment: Inhibition of recombinant human PI3K p110beta using PIP2/PS as substrate after 1 hr by ADP-Glo luminescence assay
Sequence of Phosphatidylinositol 4,5-bisphosphate 3-kinase catalytic subunit beta isoform (P42338 whole entry, canonical isoform): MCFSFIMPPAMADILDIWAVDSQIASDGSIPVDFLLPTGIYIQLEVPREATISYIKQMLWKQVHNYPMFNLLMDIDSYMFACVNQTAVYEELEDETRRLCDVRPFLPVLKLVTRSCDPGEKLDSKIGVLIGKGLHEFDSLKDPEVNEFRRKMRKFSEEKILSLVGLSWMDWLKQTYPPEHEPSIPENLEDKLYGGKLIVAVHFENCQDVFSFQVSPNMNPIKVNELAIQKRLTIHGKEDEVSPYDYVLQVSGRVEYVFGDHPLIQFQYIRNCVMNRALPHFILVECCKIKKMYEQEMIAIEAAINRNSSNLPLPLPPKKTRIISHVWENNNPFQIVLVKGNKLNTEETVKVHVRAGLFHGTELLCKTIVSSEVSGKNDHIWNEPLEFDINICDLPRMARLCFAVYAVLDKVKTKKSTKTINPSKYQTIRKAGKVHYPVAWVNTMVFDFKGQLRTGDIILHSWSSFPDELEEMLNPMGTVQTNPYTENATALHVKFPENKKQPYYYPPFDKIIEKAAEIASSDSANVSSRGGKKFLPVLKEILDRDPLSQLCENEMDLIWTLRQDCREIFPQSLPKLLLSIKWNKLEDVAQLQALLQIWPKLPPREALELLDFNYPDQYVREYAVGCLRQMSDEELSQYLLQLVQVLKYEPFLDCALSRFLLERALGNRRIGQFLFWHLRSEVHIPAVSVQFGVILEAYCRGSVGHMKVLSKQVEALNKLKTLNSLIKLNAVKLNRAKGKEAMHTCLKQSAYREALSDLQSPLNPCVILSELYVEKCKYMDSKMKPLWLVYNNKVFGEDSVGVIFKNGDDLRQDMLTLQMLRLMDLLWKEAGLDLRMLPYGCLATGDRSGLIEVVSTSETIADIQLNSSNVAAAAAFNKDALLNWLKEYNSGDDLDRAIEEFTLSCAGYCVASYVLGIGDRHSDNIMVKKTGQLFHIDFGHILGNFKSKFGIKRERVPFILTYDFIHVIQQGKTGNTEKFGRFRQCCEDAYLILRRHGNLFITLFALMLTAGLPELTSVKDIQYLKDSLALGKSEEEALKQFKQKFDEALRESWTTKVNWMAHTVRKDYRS

[3] = molecular target: PI3-kinase p110-delta/p85-alpha (Homo sapiens, UniProt O00329); experiment: Inhibition of recombinant human full length His-tagged PI3K p110delta/p85alpha expressed in baculovirus expression system using PIP2/PS as substrate after 1 hr by ADP-Glo luminescence assay
Sequence of PI3-kinase p110-delta/p85-alpha (P27986 whole entry): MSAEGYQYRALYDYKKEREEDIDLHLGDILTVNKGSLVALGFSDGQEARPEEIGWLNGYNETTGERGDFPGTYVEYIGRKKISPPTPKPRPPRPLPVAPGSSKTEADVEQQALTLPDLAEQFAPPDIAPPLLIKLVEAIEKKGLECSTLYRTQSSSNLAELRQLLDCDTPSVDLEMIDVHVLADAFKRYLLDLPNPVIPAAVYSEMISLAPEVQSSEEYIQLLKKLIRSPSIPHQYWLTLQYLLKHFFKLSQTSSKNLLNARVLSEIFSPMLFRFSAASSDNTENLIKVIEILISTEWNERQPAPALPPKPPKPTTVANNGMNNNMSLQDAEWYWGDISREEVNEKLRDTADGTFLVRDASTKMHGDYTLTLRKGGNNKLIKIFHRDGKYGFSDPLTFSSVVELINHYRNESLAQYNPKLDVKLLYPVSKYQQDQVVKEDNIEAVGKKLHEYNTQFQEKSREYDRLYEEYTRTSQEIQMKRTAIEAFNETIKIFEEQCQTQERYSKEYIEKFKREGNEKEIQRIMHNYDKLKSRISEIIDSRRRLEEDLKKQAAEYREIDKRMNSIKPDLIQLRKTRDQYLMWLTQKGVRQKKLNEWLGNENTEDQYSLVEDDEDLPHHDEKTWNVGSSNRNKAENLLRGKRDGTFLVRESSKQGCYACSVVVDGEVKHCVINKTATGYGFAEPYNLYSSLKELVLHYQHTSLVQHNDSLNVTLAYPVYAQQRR
Sequence of PI3-kinase p110-delta/p85-alpha (O00329 whole entry): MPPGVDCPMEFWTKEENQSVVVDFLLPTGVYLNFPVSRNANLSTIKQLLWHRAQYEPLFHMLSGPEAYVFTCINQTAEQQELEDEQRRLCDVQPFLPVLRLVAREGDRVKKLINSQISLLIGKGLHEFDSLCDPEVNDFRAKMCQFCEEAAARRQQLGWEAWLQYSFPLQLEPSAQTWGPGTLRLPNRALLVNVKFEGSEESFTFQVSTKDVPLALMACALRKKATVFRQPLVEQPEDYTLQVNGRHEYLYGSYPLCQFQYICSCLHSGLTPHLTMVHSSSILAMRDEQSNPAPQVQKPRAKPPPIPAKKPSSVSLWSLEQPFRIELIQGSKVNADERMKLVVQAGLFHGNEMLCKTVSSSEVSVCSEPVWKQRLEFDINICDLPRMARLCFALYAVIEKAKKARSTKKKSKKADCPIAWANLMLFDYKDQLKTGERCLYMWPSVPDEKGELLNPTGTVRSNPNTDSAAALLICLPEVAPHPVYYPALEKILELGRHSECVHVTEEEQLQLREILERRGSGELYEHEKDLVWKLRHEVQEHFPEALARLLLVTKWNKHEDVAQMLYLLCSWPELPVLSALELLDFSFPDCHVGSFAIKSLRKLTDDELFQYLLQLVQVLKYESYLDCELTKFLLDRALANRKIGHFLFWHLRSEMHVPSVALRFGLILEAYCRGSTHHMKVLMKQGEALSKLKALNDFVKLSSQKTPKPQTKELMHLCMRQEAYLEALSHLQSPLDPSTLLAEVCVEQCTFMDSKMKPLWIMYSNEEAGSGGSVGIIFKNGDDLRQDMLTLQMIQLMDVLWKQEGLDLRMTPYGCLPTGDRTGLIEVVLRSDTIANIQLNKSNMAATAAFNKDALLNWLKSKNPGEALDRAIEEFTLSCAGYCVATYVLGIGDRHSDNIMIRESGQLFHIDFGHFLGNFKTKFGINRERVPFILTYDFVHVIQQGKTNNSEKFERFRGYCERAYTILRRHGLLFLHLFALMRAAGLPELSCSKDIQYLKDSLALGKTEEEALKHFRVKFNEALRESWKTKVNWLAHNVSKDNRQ

NCI-H460 = experiment: Growth inhibition of human NCI-H460 cells after 72 hrs by SRB assay; format: functional; details: NCI-H460, 72 h
MCF7 = experiment: Growth inhibition of human MCF7 cells after 72 hrs by SRB assay; format: functional; details: MCF7, 72 h
T47D = experiment: Growth inhibition of human T47D cells after 72 hrs by SRB assay; format: functional
U-87 MG = experiment: Growth inhibition of human U87MG cells after 72 hrs by SRB assay; format: functional, U-87MG ATCC
KARPAS-422 = experiment: Growth inhibition of human KARPAS422 cells by CCK8 assay; format: functional
Pfeiffer = experiment: Growth inhibition of human Pfeiffer cells by CCK8 assay; format: functional
[4] = molecular target: Phosphatidylinositol 4,5-bisphosphate 3-kinase catalytic subunit gamma isoform (Homo sapiens, UniProt P48736)
Sequence of Phosphatidylinositol 4,5-bisphosphate 3-kinase catalytic subunit gamma isoform (P48736 whole entry, canonical isoform): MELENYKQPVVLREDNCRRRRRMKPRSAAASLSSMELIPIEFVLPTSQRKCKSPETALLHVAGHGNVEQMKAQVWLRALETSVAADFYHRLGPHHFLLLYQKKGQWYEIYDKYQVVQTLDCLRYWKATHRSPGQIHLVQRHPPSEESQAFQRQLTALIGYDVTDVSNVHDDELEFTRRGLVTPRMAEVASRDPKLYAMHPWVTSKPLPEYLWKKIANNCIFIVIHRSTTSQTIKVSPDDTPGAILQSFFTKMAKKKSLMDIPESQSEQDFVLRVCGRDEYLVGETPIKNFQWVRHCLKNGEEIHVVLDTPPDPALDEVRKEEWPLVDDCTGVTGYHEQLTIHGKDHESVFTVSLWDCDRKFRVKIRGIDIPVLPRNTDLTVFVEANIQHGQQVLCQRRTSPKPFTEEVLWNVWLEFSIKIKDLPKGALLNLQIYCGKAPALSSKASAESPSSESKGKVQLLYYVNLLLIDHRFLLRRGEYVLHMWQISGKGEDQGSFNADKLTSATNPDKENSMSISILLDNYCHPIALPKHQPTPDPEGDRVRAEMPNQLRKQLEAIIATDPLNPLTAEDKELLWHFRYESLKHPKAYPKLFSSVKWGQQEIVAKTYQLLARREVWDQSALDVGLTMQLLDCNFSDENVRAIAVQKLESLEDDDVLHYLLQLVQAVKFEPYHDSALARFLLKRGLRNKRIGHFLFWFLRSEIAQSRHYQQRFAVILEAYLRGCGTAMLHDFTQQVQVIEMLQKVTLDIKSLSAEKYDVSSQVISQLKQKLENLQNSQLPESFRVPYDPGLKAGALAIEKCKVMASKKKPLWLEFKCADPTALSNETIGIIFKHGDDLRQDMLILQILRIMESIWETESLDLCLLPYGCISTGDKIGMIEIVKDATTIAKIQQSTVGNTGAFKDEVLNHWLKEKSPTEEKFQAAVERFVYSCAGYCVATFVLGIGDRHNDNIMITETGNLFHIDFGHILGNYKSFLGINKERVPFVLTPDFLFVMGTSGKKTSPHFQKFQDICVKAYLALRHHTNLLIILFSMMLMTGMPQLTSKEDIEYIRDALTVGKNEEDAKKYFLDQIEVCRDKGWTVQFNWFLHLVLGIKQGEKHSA
Description: Inhibition of recombinant full length His-tagged human PI3K p110gamma expressed in baculovirus expression system using PIP2/PS as substrate after 1 hr by ADP-Glo luminescence assay

Sequence of PI3-kinase p110-alpha/p85-alpha (P27986 whole entry, canonical isoform): as the sequence (P27986 whole entry) above
Sequence of PI3-kinase p110-alpha/p85-alpha (P42336 whole entry, canonical isoform): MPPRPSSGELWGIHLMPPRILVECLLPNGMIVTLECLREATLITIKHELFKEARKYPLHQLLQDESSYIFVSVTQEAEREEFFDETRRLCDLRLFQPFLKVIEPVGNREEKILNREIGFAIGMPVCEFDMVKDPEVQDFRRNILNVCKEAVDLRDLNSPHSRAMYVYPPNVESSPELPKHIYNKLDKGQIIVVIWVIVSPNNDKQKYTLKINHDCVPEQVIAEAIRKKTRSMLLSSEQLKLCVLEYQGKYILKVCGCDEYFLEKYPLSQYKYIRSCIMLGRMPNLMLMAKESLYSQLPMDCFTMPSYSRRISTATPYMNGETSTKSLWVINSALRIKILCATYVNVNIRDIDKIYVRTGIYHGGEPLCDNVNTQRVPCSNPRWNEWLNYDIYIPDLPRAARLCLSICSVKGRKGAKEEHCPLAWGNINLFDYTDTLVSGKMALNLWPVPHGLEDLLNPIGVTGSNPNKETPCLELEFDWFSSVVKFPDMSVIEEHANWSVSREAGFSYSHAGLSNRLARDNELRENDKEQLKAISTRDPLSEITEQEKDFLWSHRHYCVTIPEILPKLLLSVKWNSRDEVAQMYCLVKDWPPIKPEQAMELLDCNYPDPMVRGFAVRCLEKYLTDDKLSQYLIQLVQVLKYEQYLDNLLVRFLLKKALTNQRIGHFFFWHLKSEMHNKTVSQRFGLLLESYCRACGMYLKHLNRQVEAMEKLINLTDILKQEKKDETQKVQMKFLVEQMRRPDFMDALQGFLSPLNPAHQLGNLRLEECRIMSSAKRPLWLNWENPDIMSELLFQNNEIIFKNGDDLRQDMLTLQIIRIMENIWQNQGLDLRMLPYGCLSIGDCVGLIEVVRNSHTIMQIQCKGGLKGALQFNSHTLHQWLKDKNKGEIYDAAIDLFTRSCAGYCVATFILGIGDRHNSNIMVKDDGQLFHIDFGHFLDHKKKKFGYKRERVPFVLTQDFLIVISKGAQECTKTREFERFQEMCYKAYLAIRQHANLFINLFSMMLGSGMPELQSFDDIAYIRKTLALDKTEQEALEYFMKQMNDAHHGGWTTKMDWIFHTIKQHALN

SMILES	IC50 [1]	IC50 [2]	IC50 [3]	GI50 (NCI-H460)	GI50 (MCF7)	GI50 (T47D)	GI50 (U-87 MG)	GI50 (KARPAS-422)	GI50 (Pfeiffer)	IC50 [4]
O=S(=O)(Nc1cc(-c2cnc3[nH]cc(-c4ccncc4)c3c2)cnc1Cl)c1ccccc1	1 nM	2 nM	0.6 nM	3900 nM	2140 nM	1500 nM	8950 nM	120 nM	100 nM	0.5 nM
Cn1c(=O)n(-c2ccc(C(C)(C)C#N)cc2)c2c3cc(-c4cnc5ccccc5c4)ccc3ncc21 [DACTOLISIB]	–	–	–	610 nM	60 nM	300 nM	280 nM	–	–	–
O=S(=O)(Nc1cc(-c2cnc3[nH]ccc3c2)cnc1Cl)c1ccccc1	35 nM	35 nM	1 nM	> 10000 nM	> 10000 nM	> 10000 nM	> 10000 nM	6710 nM	5500 nM	97 nM
O=S(=O)(Nc1cc(-c2cnc3[nH]cc(-c4ccncc4)c3c2)cnc1Cl)c1ccccc1F	1 nM	3 nM	0.5 nM	> 10000 nM	2500 nM	1790 nM	7130 nM	350 nM	290 nM	0.7 nM
Cc1cc2cc(-c3cnc(Cl)c(NS(=O)(=O)c4ccccc4)c3)cnc2[nH]1	–	–	–	–	–	–	–	–	–	63 nM
CC[C@H](Nc1ncnc2[nH]cnc12)c1nc2cccc(F)c2c(=O)n1-c1ccccc1 [IDELALISIB]	–	–	–	–	–	–	–	680 nM	740 nM	–
O=S(=O)(Nc1cc(-c2cnc3[nH]cc(-c4ccncc4)c3c2)cnc1Cl)c1ccc(F)cc1	1 nM	2 nM	0.4 nM	6190 nM	2910 nM	1300 nM	> 10000 nM	370 nM	410 nM	0.7 nM
Cc1ncc(-c2ccc(N)nc2)cc1NS(=O)(=O)c1ccccc1	–	–	–	–	–	–	–	–	–	381 nM
O=S(=O)(Nc1cc(-c2cnc3[nH]nc(-c4ccncc4)c3c2)cnc1Cl)c1ccccc1	1 nM	4 nM	0.7 nM	2500 nM	690 nM	520 nM	3120 nM	170 nM	150 nM	7 nM
CCc1cc2cc(-c3cnc(Cl)c(NS(=O)(=O)c4ccccc4)c3)cnc2[nH]1	–	–	–	–	–	–	–	–	–	155 nM
Nc1ccc(-c2cnc(Cl)c(NS(=O)(=O)c3ccccc3)c2)cn1	–	–	–	–	–	–	–	–	–	375 nM
CCNc1ccc(-c2cnc(Cl)c(NS(=O)(=O)c3ccccc3)c2)cn1	–	–	–	–	–	–	–	–	–	1490 nM
CS(=O)(=O)Nc1ccc(-c2cnc(Cl)c(NS(=O)(=O)c3ccccc3)c2)cn1	–	–	–	–	–	–	–	–	–	4750 nM
O=C(Nc1ccc(-c2cnc(Cl)c(NS(=O)(=O)c3ccccc3)c2)cn1)C1CC1	–	–	–	–	–	–	–	–	–	445 nM
CC(=O)Nc1ccc(-c2cnc(Cl)c(NS(=O)(=O)c3ccccc3)c2)cn1	–	–	–	–	–	–	–	–	–	420 nM
Nc1ccc(-c2cnc(N)c(NS(=O)(=O)c3ccccc3)c2)cn1	–	–	–	–	–	–	–	–	–	2970 nM
O=S(=O)(Nc1cc(-c2cnc3[nH]ncc3c2)cnc1Cl)c1ccccc1	51 nM	29 nM	1 nM	7610 nM	7400 nM	4400 nM	8940 nM	1090 nM	1160 nM	37 nM
Nc1ccc(-c2cncc(NS(=O)(=O)c3ccccc3)c2)cn1	–	–	–	–	–	–	–	–	–	1590 nM
CN(C)C(=O)Nc1ccc(-c2cnc(Cl)c(NS(=O)(=O)c3ccccc3)c2)cn1	–	–	–	–	–	–	–	–	–	68 nM
COc1ncc(-c2ccc(N)nc2)cc1NS(=O)(=O)c1ccccc1	–	–	–	–	–	–	–	–	–	2060 nM
O=S(=O)(Nc1cc(-c2cnc3[nH]c(-c4ccccc4)cc3c2)cnc1Cl)c1ccccc1	–	–	–	–	–	–	–	–	–	268 nM
O=S(=O)(Nc1cc(-c2cnc3[nH]nc(-c4ccccc4)c3c2)cnc1Cl)c1ccccc1	2 nM	6 nM	1 nM	8650 nM	7370 nM	4190 nM	> 10000 nM	1230 nM	1300 nM	17 nM
O=S(=O)(Nc1cc(-c2cnc3[nH]cc(-c4ccccc4)c3c2)cnc1Cl)c1ccccc1	2 nM	39 nM	1 nM	> 10000 nM	> 10000 nM	7720 nM	> 10000 nM	1830 nM	1520 nM	15 nM
